Inhibition data for 28 compounds are collected here from patent US20110257208A1, “COMPOUNDS USEFUL AS FAAH MODULATORS AND USES THEREOF” (priority 2008, published 2011).

Usually inhibition stands for the change of the read-out against control, counted positive when it falls.

The target in the assay is T1, hFAAH (Homo sapiens, UniProt O00519).
T1 construct: expressed in transfected cells; host or cells: HEK293-TRex (Invitrogen) stably transfected with hFAAH in the pcDNA5-Tet-off vector, or T84 human colon epithelial cells (endogenous hFAAH); used as a microsomal preparation
T1 sequence (O00519 1-579): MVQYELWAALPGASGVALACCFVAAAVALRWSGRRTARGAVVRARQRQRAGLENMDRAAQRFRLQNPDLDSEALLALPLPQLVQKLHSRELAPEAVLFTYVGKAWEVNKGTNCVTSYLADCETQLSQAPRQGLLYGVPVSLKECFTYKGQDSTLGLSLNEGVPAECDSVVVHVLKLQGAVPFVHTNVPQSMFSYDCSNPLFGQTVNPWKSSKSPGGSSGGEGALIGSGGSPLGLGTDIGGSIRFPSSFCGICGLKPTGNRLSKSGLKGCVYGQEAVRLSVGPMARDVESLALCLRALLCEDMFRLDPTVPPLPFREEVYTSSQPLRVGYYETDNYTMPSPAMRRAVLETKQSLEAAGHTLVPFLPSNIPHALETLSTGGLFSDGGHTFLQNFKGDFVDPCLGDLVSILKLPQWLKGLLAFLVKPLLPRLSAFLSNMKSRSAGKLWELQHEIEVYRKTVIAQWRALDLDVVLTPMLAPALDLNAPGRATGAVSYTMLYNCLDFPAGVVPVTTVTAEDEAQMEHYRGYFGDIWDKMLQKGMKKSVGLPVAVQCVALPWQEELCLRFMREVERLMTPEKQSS
Kind of assay: Fluorimetric assay with hFAAH microsomes (enzymatic, fluorescence based). Format: biochemical. The note with it: compound at 1 uM, AA-AMC substrate. On the procedure:
Human cell line T84 (human colon epithelial cells), which expresses endogenous hFAAH, or HEK293-TRex cells (Invitrogen) stably transfected with hFAAH in the pcDNA5-Tet-off vector are cultured in medium containing DMEM, 10% FBS penicillin/streptomycin, glutamax, 200 μg/ml hygromycin and 0.5 μg/ml blasticidin. Cell collection is done 24 h after induction with doxycycline by first washing the cells with cold PBS and then incubating them with Versene before centrifugation. Cell pellets are then stored at −80° C. until needed. For homogenization, the cell pellets are thawed on ice […] and resuspended in homogenization buffer (50 mM HEPES (pH 7.4), 1 mM EDTA, 1 μM Pepstatin A, 100 μM Leupeptin, 0.1 mg/mL aprotinin). Cell suspensions are then homogenized on ice using the Polytron 1200 C at setting 6 for three 30-second intervals with 30-second rests. The suspension is centrifuged at 1000 g for 10 minutes at 4° C. and the supernatant is collected and further centrifuged at 24000 rpm for 30 minutes at 4° C. using an ultracentrifuge. Pellets are resuspended by adding in cold microsomal buffer (50 mM HEPES (pH 7.4) and 1 mM EDTA) and sheared through a 23-gauge needle five times, keeping the suspension on ice. Protein concentrations are determined using the BCA assay and aliquoted preparations are stored at −80° C. until needed.
Compound potency against hFAAH is determined using an enzymatic assay with a fluorescence readout. Briefly, experiments were carried out in a 96-well plate format (Corning Costar, # 3370) with a total well volume of 160 μL with components added in the following order: assay buffer (50 mM HEPES (pH 7.4), 1 mM EDTA, 1.4 mg/mL BSA), compound solutions (7 different concentrations per compound in duplicate), microsomal enzyme preparation (10 μg per well) and substrate [AA-AMC (arachadonyl 7-amino 4-methyl coumarin amide), 2 μM]. After a brief shaking, a kinetic read of the plate is obtained using a Tecan Safire II in kinetic mode for 275 cycles with excitation and emission wavelengths of 355 and 460 nm, respectively. Raw data is then processed and analyzed using Assay Explorer and GraphPad Prism.
The following compounds have been or can be prepared according to the methods of the invention. An enzymatic (fluorescence based) assay is performed as described above. In Table 1, activity of each compound is expressed as follows: • ++++ % Inhibition >75% • +++ % Inhibition >50% • ++ % Inhibition >25% • + % Inhibition <25%
`Cc1ncccc1CN1Cc2ncnc(Nc3cnc4ccccc4c3)c2C1` [Compound 17, [6-(2-Methyl-pyridin-3-ylmethyl)-6,7-dihydro-5H-pyrrolo[3,4-d]pyrimidin-4-yl]-quinolin-3-yl-amine] showed an inhibition at 1 µM of over 75%.

`c1ccc2ncc(Nc3ncnc4c3CN(CC3CCSCC3)C4)cc2c1` [Compound 18, Quinolin-3-yl-[6-(tetrahydro-thiopyran-4-ylmethyl)-6,7-dihydro-5H-pyrrolo[3,4-d]pyrimidin-4-yl]-amine]: the inhibition at 1 µM was over 75%.

For the compound `CC(CN1Cc2ncnc(Nc3cnc4ccccc4c3)c2C1)c1ccccc1` (stereo not shown) [Compound 19, [6-(2-Phenyl-propyl)-6,7-dihydro-5H-pyrrolo[3,4-d]pyrimidin-4-yl]-quinolin-3-yl-amine], the inhibition at 1 µM was over 75%.

Compound `OCCCCN1Cc2ncnc(Nc3cnc4ccccc4c3)c2C1` [Compound 20, 4-[4-(Quinolin-3-ylamino)-5,7-dihydro-pyrrolo[3,4-d]pyrimidin-6-yl]-butan-1-ol] had an inhibition at 1 µM of under 25%.

`c1ccc2ncc(Nc3ncnc4c3CN(CC3CCC3)C4)cc2c1` [Compound 21, (6-Cyclobutylmethyl-6,7-dihydro-5H-pyrrolo[3,4-d]pyrimidin-4-yl)-quinolin-3-yl-amine] came in with an inhibition at 1 µM of over 50%.

In turn, `c1ccc(CCN2Cc3ncnc(Nc4cnc5ccccc5c4)c3C2)cc1` [Compound 22, (6-Phenethyl-6,7-dihydro-5H-pyrrolo[3,4-d]pyrimidin-4-yl)-quinolin-3-yl-amine] returned an inhibition at 1 µM of over 75%.

The compound `c1ccc2ncc(Nc3ncnc4c3CN(C3CCCCC3)C4)cc2c1` [Compound 23, (6-Cyclohexyl-6,7-dihydro-5H-pyrrolo[3,4-d]pyrimidin-4-yl)-quinolin-3-yl-amine] gave an inhibition at 1 µM of over 25%.

In turn, `Cn1nccc1CN1Cc2ncnc(Nc3cnc4ccccc4c3)c2C1` [Compound 24, [6-(2-Methyl-2H-pyrazol-3-ylmethyl)-6,7-dihydro-5H-pyrrolo[3,4-d]pyrimidin-4-yl]-quinolin-3-yl-amine] displayed an inhibition at 1 µM of over 25%.

In the case of `Cc1nc(CN2Cc3ncnc(Nc4cnc5ccccc5c4)c3C2)cs1` [Compound 25, [6-(2-Methyl-thiazol-4-ylmethyl)-6,7-dihydro-5H-pyrrolo[3,4-d]pyrimidin-4-yl]-quinolin-3-yl-amine], the inhibition at 1 µM is under 25%.

The compound `Cc1c(CN2Cc3ncnc(Nc4cnc5ccccc5c4)c3C2)cnn1C` [Compound 26, [6-(1,5-Dimethyl-1H-pyrazol-4-ylmethyl)-6,7-dihydro-5H-pyrrolo[3,4-d]pyrimidin-4-yl]-quinolin-3-yl-amine] gave an inhibition at 1 µM of over 25%.

The compound `CN1CCC(CN2Cc3ncnc(Nc4cnc5ccccc5c4)c3C2)CC1` [Compound 27, [6-(1-Methyl-piperidin-4-ylmethyl)-6,7-dihydro-5H-pyrrolo[3,4-d]pyrimidin-4-yl]-quinolin-3-yl-amine] gave an inhibition at 1 µM of under 25%.

As to `Cc1nc(C)c(CN2Cc3ncnc(Nc4cnc5ccccc5c4)c3C2)s1` [Compound 28, [6-(2,4-Dimethyl-thiazol-5-ylmethyl)-6,7-dihydro-5H-pyrrolo[3,4-d]pyrimidin-4-yl]-quinolin-3-yl-amine], the inhibition at 1 µM is over 75%.

For `CC1(CN2Cc3ncnc(Nc4cnc5ccccc5c4)c3C2)COC1` [Compound 29, [6-(3-Methyl-oxetan-3-ylmethyl)-6,7-dihydro-5H-pyrrolo[3,4-d]pyrimidin-4-yl]-quinolin-3-yl-amine], the inhibition at 1 µM is over 25%.

Take `FC(F)(F)CN1Cc2ncnc(Nc3cnc4ccccc4c3)c2C1` [Compound 30, Quinolin-3-yl-[6-(2,2,2-trifluoro-ethyl)-6,7-dihydro-5H-pyrrolo[3,4-d]pyrimidin-4-yl]-amine]: the inhibition at 1 µM is under 25%.

The compound `FC(F)(F)CCN1Cc2ncnc(Nc3cnc4ccccc4c3)c2C1` [Compound 31, Quinolin-3-yl-[6-(3,3,3-trifluoro-propyl)-6,7-dihydro-5H-pyrrolo[3,4-d]pyrimidin-4-yl]-amine] came in with an inhibition at 1 µM of over 50%.

`CC(C)C(C)N1Cc2ncnc(Nc3cnc4ccccc4c3)c2C1` (stereo not shown) [Compound 32, [6-(1,2-Dimethyl-propyl)-6,7-dihydro-5H-pyrrolo[3,4-d]pyrimidin-4-yl]-quinolin-3-yl-amine] had an inhibition at 1 µM of over 25%.

Turning to `c1ccc2ncc(Nc3ncnc4c3CN(CC3CCOCC3)C4)cc2c1` [Compound 33, Quinolin-3-yl-[6-(tetrahydro-pyran-4-ylmethyl)-6,7-dihydro-5H-pyrrolo[3,4-d]pyrimidin-4-yl]-amine], the inhibition at 1 µM was over 75%.

In the case of `CC(C)N1Cc2ncnc(Nc3cnc4ccccc4c3)c2C1` [Compound 34, (6-Isopropyl-6,7-dihydro-5H-pyrrolo[3,4-d]pyrimidin-4-yl)-quinolin-3-yl-amine], the inhibition at 1 µM is under 25%.

In turn, `CCC(C)N1Cc2ncnc(Nc3cnc4ccccc4c3)c2C1` (stereo not shown) [Compound 35, (6-sec-Butyl-6,7-dihydro-5H-pyrrolo[3,4-d]pyrimidin-4-yl)-quinolin-3-yl-amine] displayed an inhibition at 1 µM of under 25%.

Compound `CC(C1CCC1)N1Cc2ncnc(Nc3cnc4ccccc4c3)c2C1` (stereo not shown) [Compound 36, [6-(1-Cyclobutyl-ethyl)-6,7-dihydro-5H-pyrrolo[3,4-d]pyrimidin-4-yl]-quinolin-3-yl-amine] had an inhibition at 1 µM of over 25%.

Compound `CC(C1CCCC1)N1Cc2ncnc(Nc3cnc4ccccc4c3)c2C1` (stereo not shown) [Compound 37, [6-(1-Cyclopentyl-ethyl)-6,7-dihydro-5H-pyrrolo[3,4-d]pyrimidin-4-yl]-quinolin-3-yl-amine] came in with an inhibition at 1 µM of over 50%.

`CC(C1CCCCC1)N1Cc2ncnc(Nc3cnc4ccccc4c3)c2C1` (stereo not shown) [Compound 38, [6-(1-Cyclohexyl-ethyl)-6,7-dihydro-5H-pyrrolo[3,4-d]pyrimidin-4-yl]-quinolin-3-yl-amine] yielded an inhibition at 1 µM of over 75%.

The compound `CC(CC(C)(C)C)N1Cc2ncnc(Nc3cnc4ccccc4c3)c2C1` (stereo not shown) [Compound 39, Quinolin-3-yl-[6-(1,3,3-trimethyl-butyl)-6,7-dihydro-5H-pyrrolo[3,4-d]pyrimidin-4-yl]-amine] registered an inhibition at 1 µM of under 25%.

For `c1ccc2ncc(Nc3ncnc4c3CN(C3CCCCCC3)C4)cc2c1` [Compound 40, (6-Cycloheptyl-6,7-dihydro-5H-pyrrolo[3,4-d]pyrimidin-4-yl)-quinolin-3-yl-amine], the inhibition at 1 µM was over 25%.

`c1ccc2ncc(Nc3ncnc4c3CN(C3CCCC3)C4)cc2c1` [Compound 41, (6-Cyclopentyl-6,7-dihydro-5H-pyrrolo[3,4-d]pyrimidin-4-yl)-quinolin-3-yl-amine] showed an inhibition at 1 µM of over 50%.

Take `CCCC(C)N1Cc2ncnc(Nc3cnc4ccccc4c3)c2C1` (stereo not shown) [Compound 42, [6-(1-Methyl-butyl)-6,7-dihydro-5H-pyrrolo[3,4-d]pyrimidin-4-yl]-quinolin-3-yl-amine]: the inhibition at 1 µM was over 25%.

With `c1ccc2ncc(Nc3ncnc4c3CN(C3CCC3)C4)cc2c1` [Compound 43, (6-Cyclobutyl-6,7-dihydro-5H-pyrrolo[3,4-d]pyrimidin-4-yl)-quinolin-3-yl-amine], the inhibition at 1 µM was under 25%.

Turning to `c1ccc2ncc(Nc3ncnc4c3CN(C3COC3)C4)cc2c1` [Compound 44, (6-Oxetan-3-yl-6,7-dihydro-5H-pyrrolo[3,4-d]pyrimidin-4-yl)-quinolin-3-yl-amine], the inhibition at 1 µM was under 25%.
